The values that follow come from ChEMBL document CHEMBL5385880, “Design, synthesis and evaluation of the novel chalcone derivatives with 2,2-dimethylbenzopyran as HIF-1 inhibitors that possess anti-angiogenic potential” (Eur J Med Chem, 2023).

The structures appear in SMILES notation. Activity calls are given as the source filed them.

One data set concerns T47D. The data set can be described thus: Cytotoxicity activity against human T47D cells. The data set is classed as functional, cell-based.
Data set [1] is described as follows: Metabolic stability in Sprague-Dawley rat liver microsomes at 100 ug/ml measured after 10 mins in presence of NADPH generating system by HPLC analysis. The data set is classed as ADME, Microsome. Conditions: at 100 µg/mL, read-out: Stability. A general note: Microsomes from liver hold many membrane-bound enzymes, among them those of drug oxidation.
A short description of data set [2]: Metabolic stability in Sprague-Dawley rat liver microsomes at 100 ug/ml measured after 30 mins in presence of NADPH generating system by HPLC analysis. It counts as ADME, Microsome. Conditions: at 100 µg/mL, read-out: Stability.
Data set [3] in a line: Metabolic stability in Sprague-Dawley rat liver microsomes at 100 ug/ml measured after 60 mins in presence of NADPH generating system by HPLC analysis. Conditions: at 100 µg/mL, read-out: Stability. It counts as ADME, Microsome.
Data set [4] in a line: Metabolic stability in Sprague-Dawley rat liver microsomes at 100 ug/ml measured after 120 mins in presence of NADPH generating system by HPLC analysis. The data set is classed as ADME, Microsome. The settings on record: at 100 µg/mL, read-out: Stability.
Data set [5] is described as follows: Metabolic stability in Sprague-Dawley rat liver microsomes assessed as half life at 100 ug/ml measured upto 120 mins in presence of NADPH generating system by HPLC analysis. The settings on record: dose 100 µg/ml. The data set is classed as ADME, Microsome.
Data set [6] is described as follows: Tmax in Sprague-Dawley rat at 20 mg/kg, iv administered as single dose measured upto 6 hrs by HPLC analysis. The data set is classed as ADME, organism-based. The settings on record: in vivo.
The nature of data set [7]: Cmax in Sprague-Dawley rat at 20 mg/kg, iv administered as single dose measured upto 6 hrs by HPLC analysis. It counts as ADME, organism-based. Also noted: dose 20 mg/kg, time < 6 hrs, route iv. The settings on record: in vivo.
Data set [8] is described as follows: Half life in Sprague-Dawley rat at 20 mg/kg, iv administered as single dose measured upto 6 hrs by HPLC analysis. The data set is classed as ADME, organism-based. Conditions: in vivo.
Data set [9] in a line: Clearance in Sprague-Dawley rat at 20 mg/kg, iv administered as single dose measured upto 6 hrs by HPLC analysis. It counts as ADME, organism-based. Conditions: in vivo.
Data set [10] is described as follows: Apparent volume of distribution in Sprague-Dawley rat at 20 mg/kg, iv administered as single dose measured upto 6 hrs by HPLC analysis. The settings on record: in vivo, read-out: Vz. The data set is classed as ADME, organism-based.
Data set [11] can be described thus: AUC (0 to t) in Sprague-Dawley rat at 20 mg/kg, iv administered as single dose measured upto 6 hrs by HPLC analysis. The data set is classed as ADME, organism-based. Also noted: dose 20 mg/kg, time < 6 hrs, route iv. The settings on record: in vivo.
A short description of data set [12]: AUC (0 to infinity) in Sprague-Dawley rat at 20 mg/kg, iv administered as single dose measured upto 6 hrs by HPLC analysis. Conditions: in vivo. On the set-up: time < 6 hrs, dose 20 mg/kg, route iv. It counts as ADME, organism-based.
In data set [13] the test system is A549. The data set can be described thus: Cytotoxicity against human A549 cells assessed as reduction in cell growth incubated for 48 hrs by CCK-8 method. It counts as functional, cell-based. (In general: Formazan colour is commonly taken as a measure of viable cells.)
Data set [14] in a line: Cytotoxicity against human HUVEC cells assessed as reduction in cell growth incubated for 48 hrs by CCK-8 method. It counts as toxicity, cell-based.
Data set [15] deals with A549. The data set is described as follows: Cytotoxicity against human A549 cells assessed as reduction in cell growth at 4 uM incubated for 48 hrs by CCK-8 method. It counts as functional, cell-based.
Data set [16] deals with HUVEC. The data set is described as follows: Cytotoxicity against human HUVEC cells assessed as reduction in cell growth at 10 uM incubated for 48 hrs by CCK-8 method. It counts as toxicity, cell-based.
Data set [17] has as its system A549. The data set is described as follows: Antimigratory activity in human A549 cells assessed as decrease in cell migration at 4 uM incubated for 24 hrs by wound healing assay. It counts as functional, cell-based.
Data set [18] concerns A549. The data set can be described thus: Inhibition of VEGF induced cell invasion in human A549 cells measured after 24 hrs by calcein-AM staining transwell invasion assay. The data set is classed as functional, cell-based. The settings on record: dose 0-4 µM.
The subject of data set [19] is A549. The data set can be described thus: Inhibition of cell invasion in human A549 cells at 0 to 4 uM measured after 24 hrs by calcein-AM staining transwell invasion assay. The data set is classed as functional, cell-based. The settings on record: dose 0-4 µM.
Data set [20] deals with HUVEC. The data set is described as follows: Antiangiogenic activity in HUVEC assessed as inhibition of VEGF-induced tube formation measured after 12 hrs by matrigel based analysis. It counts as functional, cell-based. The settings on record: Homo sapiens, dose 0-8 µM.
A short description of data set [21]: Plasma protein binding in Sprague-Dawley rat assessed as free fraction by equilibrium dialysis analysis. The data set is classed as ADME, cell-free.
Data set [22] is described as follows: Subchronic toxicity in Kunming mouse assessed as effect on body weight at 50 mg/kg administered via oral gavage measured upto 10 days. The settings on record: in vivo, 240 h, time < 10 day. It counts as organism-based.
The nature of data set [23]: Subchronic toxicity in Kunming mouse assessed as effect on apparent behavior problem at 50 mg/kg administered via oral gavage measured upto 10 days. It counts as organism-based. Conditions: in vivo, 240 h, time < 10 day.
Data set [24] can be described thus: Subchronic toxicity in Kunming mouse assessed as adverse events at 50 mg/kg administered via oral gavage measured upto 10 days. Conditions: in vivo, 240 h, time < 10 day. It counts as organism-based.
Data set [25] can be described thus: Subchronic toxicity in Kunming mouse assessed as drug tolerance at 50 mg/kg administered via oral gavage measured upto 10 days. Conditions: in vivo, 240 h, time < 10 day. It counts as organism-based.
Data set [26] can be described thus: Subchronic toxicity in Kunming mouse assessed as side effects at 50 mg/kg administered via oral gavage measured upto 10 days. Conditions: in vivo, 240 h, time < 10 day. It counts as organism-based.
The species named for data set [27] is Mus musculus. The data set can be described thus: Anti-angiogenesis activity in VEGF stimulated C57/bl6 mouse assessed as decrease in number of blood vessels at 1.25 to 20 uM measured after 10 days. The data set is classed as functional, organism-based. The settings on record: dose 1.25-20 µM, time 10.0 day.
Data set [28] is filed under the species Mus musculus. The data set is described as follows: Anti-angiogenesis activity in VEGF stimulated C57/bl6 mouse assessed as formation of new blood vessels at 20 uM measured after 10 days. It counts as functional, organism-based. The settings on record: time 10.0 day.
Data set [29] concerns Mus musculus. The data set is described as follows: Anti-angiogenesis activity in VEGF stimulated C57/bl6 mouse implanted with matrigel assessed as appearance of hemoglobin content in matrigel plug at 1.25 to 20 uM measured after 10 days. The data set is classed as functional, organism-based. Conditions: dose 1.25-20 µM, time 10.0 day.

As to `COc1ccc([C@@H](O)[C@@H](C)Oc2ccc([C@H]3O[C@H](c4ccc(O[C@H](C)[C@H](O)c5ccc(OC)c(OC)c5)c(OC)c4)[C@H](C)[C@H]3C)cc2OC)cc1OC`, it took 0.003 µM to reach half-maximal inhibition in the data set with T47D (IC50).

In the case of `COc1ccc(/C=C/C(=O)c2ccc3c(c2O)C=CC(C)(C)O3)cc1OCCCN1CCCC1`, in data set [1], the remaining at 10 min, 100 ug/ml came to 90%. Moreover, the remaining at 0.5 h, 100 ug/ml in data set [2] amounted to 77%. Also, in data set [3], the remaining at 1 h, 100 ug/ml was 60%. Besides, the remaining at 2 h, 100 ug/ml in data set [4] is 51%. For the same compound, the half-life (usually the time needed for the level to fall by half in the phase considered) at 100 ug/ml in data set [5] was found to be 2.3 h. Further, the Tmax (commonly the time at which the peak concentration occurs) in [6] stood at 1.98 min. Moreover, the peak level in [7] (Cmax) was 7.06 µM. Moreover, the half-life in [8] was 1.64 h. Further, the clearance (usually the rate of elimination divided by the concentration) in [9] is 39.5 mL/min. In addition, the Vd in data set [10] came to 5.59 L. Further, the AUC(0-t) (usually the area under the concentration-time curve up to a stated or last time point) at 6 h in [11] worked out at 5.27 µM·h. Further, in data set [12], the AUC(0-inf) – broadly, the area under the concentration-time curve extrapolated to infinity – worked out at 8.88 µM·h. Further, the IC50 (usually the concentration needed to halve the response being measured) in the data set on A549 [13] (A549, 48 h) was found to be 8.88 µM. Besides, in the data set with A549 [13] (A549, time 48 hrs), the IC20 (as a rule, the concentration at which the effect reaches the 20% level) stood at 4.19 µM. Further, the IC50 at 48 h in data set [14] was determined as 19.6 µM. Also, the concentration for an effect of 20% (IC20) at 48 h in data set [14] (time 48 hrs) was found to be 10.6 µM. For the same compound, the outcome in the data set with A549 [15] and in the data set filed under Mus musculus [28] was inactive. The Activity entry with HUVEC [16] was “Non-Toxic”; with HUVEC [20], “Dose-Dependent Effect”; in data set [22], “Non-Toxic”; in data set [23], “Non-Toxic”; in [24] it was “Non-Toxic”; in data set [25], “Non-Toxic”. Besides, the Activity result in [26] is “Non-Toxic”. Also, the outcome in the data set on A549 [17], in the data set listed under Mus musculus [27] and with Mus musculus [29] was Active. The inhibition entry in the data set with A549 [18] was “Dose-Dependent Effect”. Also, the inhibition result with A549 [19] was “Active”. In addition, the fraction unbound (as a rule, the share of the substance not bound to proteins or other matrix) in data set [21] came to 0.88.
